# Conditions: buffer; pH 7.4; 200.0 µM
row,SMILES,solubility kinetic [µg/mL]
1,O=C(Cc1ccc(Cl)cc1)Nc1cccc2ncccc12,3.9
2,Cc1cccc(N2C(=O)CSC23CCCCC3)c1,20.3
3,O=C(Cc1cccs1)N1CCN(c2cccc(Cl)c2)CC1,42.9
4,CC1(/[N+]([O-])=C\c2ccccc2F)CCCCC1=O (stereo not given),> 37.4
5,O=C(O)C(=O)O.c1ccc2c(OCCCN3CCCCCC3)cccc2c1,32.8
6,COc1ccc(NC(=O)CCN2C(=O)[C@@H]3[C@H](C2=O)[C@H]2C=C[C@@H]3C2)cc1,46.7
7,COc1cccc(NC(=S)N(C)C2CCN(C)CC2)c1,> 44
8,CC1CCCC(NC(=O)COC(=O)/C=C/c2ccc(F)cc2)C1C (stereo not given),3.3
9,COc1ccc2cc(C(C)C(=O)N3CCC(C(N)=O)CC3)ccc2c1 (stereo not given),> 51.1
10,O=C(Nc1ccc(F)cc1F)N1CCN(CCc2ccccc2)CC1,42.7
11,COC(=O)c1c(C)oc(C)c1S(=O)(=O)N(C)C1CCCCC1,38.9
12,NC(=O)CNC(=O)c1cccc(Cl)c1,> 31.9
13,O=C(COc1ccc(Cl)cc1)Nc1ccc2oc(=O)ccc2c1,< 0.7
14,CN(CC(=O)Nc1ccc(F)c(F)c1F)C(=O)C1=COCCO1,> 49.5
15,COc1ccc(CCNC(=O)CCNC(=O)c2ccco2)cc1,> 47.5
16,CCC(C)[C@H](NC(=O)NCCC1=CCCCC1)C(=O)O (stereo not given in full),38.2
17,CCc1cccc(C)c1NC(=O)C1CC(=O)N(C2CCCC2)C1 (stereo not given),> 47.2
18,O=C(CSc1nccc(=O)[nH]1)N1CCOCC1,> 38.3
19,CC(C)CCSc1cc(NCCO)c([N+](=O)[O-])c2nonc12,10
20,CCOC(=O)c1cc(CC)sc1NC(=O)COC(=O)C1CCC1,< 0.7
21,Cc1cc(Nc2ccc(Cl)cc2)nc(N2CCOCC2)n1,1.8
22,Cc1ccc(CC(=O)N2CCN(C(=O)C3CCCO3)CC2)cc1 (stereo not given),43.2
23,O=C(c1ccccc1F)N1CCCC(C(=O)N2CCc3ccccc3C2)C1 (stereo not given),51.3

row,SMILES,solubility kinetic [µg/mL]
1,Cc1ccccc1C(=O)NC1CCN(CC(=O)NC2CCCCC2)CC1,> 53.6
2,CC(CCc1ccc(O)cc1)NCCC(c1ccccc1)c1ccccc1 (stereo not given),53.4
3,CCn1c(SCC(=O)NC2CC2)nnc1-c1ccccn1,> 45.5
4,O=C(COC(=O)c1ccc2c(c1)OCO2)Nc1ccccc1OC(F)F,3.7
5,CCCC(=O)Nc1nc(CC(=O)OCC)cs1,> 38.4
6,Cc1ccc(S(=O)(=O)c2c(C)cc(C)nc2N2CCCC2)cc1,1.2
7,Cc1ccc2c(c1)c(=O)c1c3n2CCN(CC#N)C3CC1 (stereo not given),37.7
8,Cl.N=c1ccn(Cc2c(Cl)cccc2Cl)cc1,> 43.4
9,CN=C(c1ccc([N+](=O)[O-])cc1)N1CCCCC1,> 37.1
10,CCCCc1ccc(NC(=O)NCc2ccccn2)cc1,13.1
11,CCC(=O)Nc1cc2c3c(c1)CCN3C(=O)CC2,35.3
12,CCOCCCN1CC(C(=O)NCc2ccc3c(c2)OCO3)CC1=O (stereo not given),> 52.3
13,CCOC(=O)c1ccc(CSC(=N)N)o1,31.4
14,Cc1cc(NC(=O)NC(C(F)(F)F)C(F)(F)F)no1,22.7
15,O=C(c1cccc(S(=O)(=O)NCc2ccccc2)c1)N1CCN(c2ccccc2)CC1,2.4
16,O=C(O)c1ccc2c(c1)SC1=NS(=O)(=O)CCN12,> 42.6
17,O=C(NC1CCCC1)C1CCCN(C(=O)Nc2ccccc2)C1 (stereo not given),43.9
18,COc1ccccc1N1CC(C(=O)Nc2ccc(S(=O)(=O)N3CCCC3)cc2)CC1=O (stereo not given),> 66.5
19,CC1C(=O)N2CCCc3cc(NC(=O)C(=O)NCc4ccccn4)cc1c32 (stereo not given),> 54.7
20,CN(CCN1CCOCC1)Cc1nc(-c2ccc3c(c2)OCO3)no1,48.5
21,O=C(Nc1ncccn1)c1cccc(F)c1,> 32.6
22,O=C(O)c1cccnc1SCc1cn2cc(Cl)ccc2n1,> 48

# Continued, values first:
row,solubility kinetic [µg/mL],SMILES
1,0.7,CN1C(=O)c2ccc(C(=O)Nc3ccc4c(c3)OCO4)cc2C1=O
2,> 30.8,CNc1nc(SC)nc2ccccc12
3,< 0.2,O=C(Nc1nc(-c2cccnc2)cs1)c1ccccc1F
4,37.7,Cc1ccc(S(=O)(=O)NCCc2c[nH]c3ccccc23)cc1
5,6.2,Cc1ccccc1-c1cn(-c2ccccc2)c(=S)[nH]1
6,19.5,CCOC(=O)CSc1ccc2ccccc2n1
7,> 47.7,Cc1cccc(NC(=O)CCNC(=O)c2ccccc2Cl)n1
8,< 0.3,O=C(Nc1nc2ccsc2c(=O)s1)c1ccc(F)cc1
9,54.3,O=C(CSc1nc2ccccc2c(=O)n1-c1ccccc1F)N1CCOCC1
10,45.7,Cc1ccc(/C=C2\CCn3c2nc2cc(C(=O)O)ccc2c3=O)c(C)c1
11,2.9,COc1ccc2[nH]cc(/C=C/C(=O)c3ccccc3)c2c1
12,> 46.7,CCOC(=O)C(Cc1ccccc1)C(=O)NCc1ccccc1 (stereo not given)
13,> 45.2,Cc1ccccc1NC(=S)N/N=C/c1ccc(O)cc1O
14,3.8,CCc1cccc(NC(=S)Nc2cccc3ccccc23)c1
15,7.6,CCCc1cc(=O)[nH]c(SCC(=O)N2CCc3ccccc32)n1
16,19.1,NC(=O)COC(=O)c1ccc(-c2ccccc2)cc1
17,39.7,COc1ccc(-c2noc(CCC(=O)NCc3ccco3)n2)cc1
18,< 0.3,O=C(Nc1nc(-c2ccc(Br)cc2)cs1)c1cccnc1
19,0.8,COC(=O)c1ccc(N2CCN(c3ccccc3)CC2)c(N)c1
20,> 71.6,C=CCn1c(SCC(=O)Nc2ccc(C(=O)O)cc2)nc2scc(-c3ccccc3)c2c1=O

row,solubility kinetic [µg/mL],SMILES
1,11.1,CC(=O)Nc1ccc(NC(=O)c2c(-c3ccccc3)noc2C)cn1
2,1.7,COCc1cc(=O)[nH]c(Cc2c(Cl)cccc2Cl)n1
3,36.1,COCCn1c(-c2ccc(F)cc2)nc2cccnc21
4,> 43.4,O=C1NN=C(c2ccccc2)CC1c1c[nH]c2ccccc12 (stereo not given)
5,3.1,COCc1cccc(C(=O)NC(c2ccccc2)c2ccccc2)c1
6,4.6,CC1CCCC(NC(=O)COC(=O)c2cc(=O)[nH]c3ccccc23)C1C (stereo not given)
7,< 0.6,CC(=O)c1c(C)n(-c2cccc(Cl)c2)c2ccc(O)cc12
8,> 45.1,CC1=NN(c2ccccc2)C(=O)C1/C=C1\NC(=S)NC1=O (stereo not given)
9,> 44.9,C[C@]12CS(=O)(=O)C[C@H]1SC(=S)N2c1ccccc1
10,45.5,Cn1c2c(c(=O)n(C)c1=O)C(c1cccc(F)c1)C(C#N)=C(N)O2 (stereo not given)
11,2.7,Cc1cccc(N=C2NC(=O)/C(=C/c3cccnc3)S2)c1
12,< 0.4,COc1ccc(-c2c(C#N)sc(C(N)=O)c2-c2ccc(OC)cc2)cc1
13,1.8,O=C(OCc1c(F)cccc1Cl)c1cnc2ccccc2n1
14,0.7,Cc1[nH]c(=O)c(C#N)cc1-c1csc(-c2ccccc2)n1
15,15.5,CN1C(C(=O)Nc2ccccn2)=C(O)c2sc(Cl)cc2S1(=O)=O
16,43.2,O=C(Nc1ccsc1C(=O)O)c1cccc(Oc2ccccc2)c1
17,13.7,CCc1cccc(C)c1NC(=O)COC(=O)CSCc1ccccc1
18,8.9,CCn1c(=O)c2sccc2n(Cc2ccccc2)c1=O
19,5.5,O=C(/C=C/Nc1ccccc1O)c1ccco1
20,13,O=C1COc2ccc(S(=O)(=O)NCCc3ccccc3)cc2N1

# From PubChem BioAssay AID1996
